Test results reported in patent US5661182A, “Method for lowering oxygen affinity of hemoglobin in redcell suspensions, in whole blood and in vivo” (Virginia Commonwealth University, priority 1995, dated 1997).
“Also recorded” adds a separate entry of the source.

Columns and labels:
[1] = test system: purified Hb Yakima; test: Effect on purified Hb Yakima; assay type: biochemical, human
[2] = test system: hemoglobin; test: Comparison of allosteric effector strength (right shift of oxygen equilibrium curve); assay type: biochemical; conditions: compounds of FIG. 1
[3] = molecular target: T1, deoxyhemoglobin (Homo sapiens, UniProt P68871+P69905); test: X-ray crystallographic studies with deoxyhemoglobin; assay type: binding; conditions: near Arg 104β
Experimental: X-ray Crystallographic Studies. Hemoglobin for the crystal studies was prepared from human blood, and T-state deoxy crystals were obtained from ammonium sulfate solutions. RSR-4 or RSR-13 (2 effectors/I Hb) was dissolved in a slight excess of sodium bicarbonate to facilitate dissolution and was added to a 6 g % solution of deoxy-Hb in the glove box. A 1 g % Hb RSR-4 or RSR-13 solution was added to each crystallization tube. Crystals grew in approximately 1 week. X-ray data were collected with Friedel pairs using ω scans on a Rigaku AFC5R diffractometer equipped with a rotating anode and a 60-cm long evacuated beam tunnel. The crystals with allosteric effectors were isomorphous with native deoxy-Hb: RSR-4, 63.2, 83.7, and 53.8 Å, 99.4°; RSR-13, 63.2, 83.6, and 53.7 Å, 99.5°. Data collection (RSR-4 to 2.4-Å and RSR-13 to 2.8-Å resolution) was controlled by TEXAN software from Molecular Structure Corp. (The Woodlands, Tex.). There was little radiation damage to crystals, and new crystals were mounted when standard reference reflection intensities fell by 10%. All data were corrected for radiation damage when appropriate. The R-factors for the Friedel pairs and derivatives vs. native were as follows: RSR-4 (2.4 Å), 14.6% and 18.9%, and RSR-13 (2.8 Å), 7.2% and 12.5%, respectively. The difference electron density maps were obtained using the Cambridge computer programs (CCP4). […] The allosteric effector molecules were well resolved and easily fit to the difference density.

[4] = molecular target: hemoglobin in fresh human red blood cells (Homo sapiens, UniProt P68871+P69905); test: Oxygen equilibrium curves of fresh human red cell suspensions (p50); assay type: cell-based; conditions: presence of DIDS
Experimental: Human blood was collected on heparin from healthy nonsmoking donors. Bovine blood was provided by Pr Delpech, INA (Paris-Grignon). Red blood cells were washed three times in isotonic buffer, kept at 4° C., and used within 24 h after sampling. Hemoglobin Yakima, a high-oxygen-affinity variant [α2 β2 99 (G1) Asp>>His], was obtained from a known heterozygous carrier. Fresh Yakima red cells were processed in the same way as described above.
L3,5 and L3,4,5 were provided by Dr. Lalezari (Montefiore Hospital, New York); RSR-4 [2-[4-[[(3,5-dichloroanilino)carbonyl]methyl]phenoxy]-2-methylpropionic acid]and RSR13 [2-4-[[(3,5- dimethylanilino)carbonyl]methyl]phenoxy]-2-methylpropionic acid] have been synthesized following the procedure described in Randad et al. (J. Med. Chem. 34,752 (1991)). Human serum albumin (HSA), bovine serum albumin (BSA) and 4,4'diisothiocyanatostilbene-2,2'-disulfonate (DIDS) were purchased from Sigma (St. Louis, Mo.). Due to their low solubility in aqueous buffer, 10 mM stock solutions of the compounds were prepared in a slight exccess of sodium bicarbonate and back-titrated to pH 7.4. For example, RSR-4 or RSR-13 was dissolved at 60° C. in a 140 mM NaCl and 50 mM bis-Tris buffer at room temperature upon progressive addition of NaHCO3 to obtain 10 mM stock solutions. The pH was carefully adjusted to 7.4 after complete solubilization and before use of the solutions. Fresh solutions were prepared each week. Stock solutions of DIDS (1 mM) were prepared, in the dark, on the day of the experiments in a pH 7.4 buffer. Human serum albumin (defatted HSA) and bovine serum albumin (BSA) were prepared freshly as 1 mM stock solutions, pH 7.4. Equilibrium Measurements. The allosteric modulation of the effectors on freshly prepared solutions of hemoglobin or red cell suspensions was measured by the change in p50, the partial pressure of oxygen for half-saturation. Oxygen equilibrium curves (OEC) were carried out with the Hemox analyzer (TCS, Southampton, Pa.) under the following conditions: pH 7.4, 140 mM NaCl and 50 mM bis-Tris buffer at 37° C. In all experiments, the concentration of hemoglobin in the red cell suspensions was 20-25 μM hemoglobin tetramer (Hb4) as measured by Drabkin's method (cyanomethemoglobin) at the end of each recording. The final concentration of the allosteric effector in the cuvette was 0.5 mM, resulting in an effector/Hb4 ratio of 20 in the absence of albumin. OEC were also made in the same buffer containing 12.5, 25, 50, and 100 μM HSA (for human red cell suspensions) or BSA (for bovine cell suspensions). The serum albumin experiments were carried out with traces of an antifoaming agent. This agent has no deleterious effect on the red cell suspensions. The molar ratio of albumin to tetrameric hemoglobin was varied from 0.5 (at 12.5 μM HSA) to 4 (at 100 μM HSA); in whole blood this ratio is approximately 0.3 (0.7 mM albumin plus plasma proteins/2.25 mM Hb4). Therefore, the concentration of albumin used in the present studies was always larger relative to tetrameric hemoglobin than that found in whole blood.
Equilibrium oxygen binding curves were also recorded for red cell suspensions (10% hematocrit) that had been reacted for 30 min in the dark at 37° C. with 20 μM DIDS, a specific inhibitor of the red cell membrane anion channel. Kinetic Experiments. The kinetics of the interaction between the effectors and intracellular hemoglobin were measured in the absence and presence of varying concentrations of HSA. The red cell suspensions were equilibrated under room air (pO2 =140 mmHg) at 37° C. in the optical cuvette of the Hemox analyzer, which provides a constant stirring of the suspensions. […] Changes in absorbance were recorded and stored on tape for further analyses. […]

[5] = test system: bovine red cells; test: Hemolysis of bovine red cells in vitro; assay type: cell-based
[6] = test system: human red cells; test: Hemolysis of human red cells in vitro; assay type: cell-based
[7] = cited from earlier work
[8] = test system: hemoglobin; conditions: hemoglobin solutions, fresh intact red cells; cited from earlier work
[9] = molecular target: T1, deoxyhemoglobin; conditions: X-ray, literature; cited from earlier work

Row | Structure (SMILES) | state of purified Hb Yakima in the presence of effector [1] | allosteric effector strength [2] | second symmetry-related pair of binding sites [3] | lowering of oxygen affinity / allosteric potency (prior art, words) [8] | binding site in deoxyhemoglobin (prior art, words) [9] | further results
1 | O=C(O)C(COP(=O)(O)O)OP(=O)(O)O (stereo not shown) [DPG, 2,3-diphospho-glyceric acid] | remains locked in the high-affinity R-state |  |  |  |  | 
2 | CC(C)(Oc1ccc(NC(=O)Nc2cc(Cl)c(Cl)c(Cl)c2)cc1)C(=O)O [L3,4,5, reference compound] | remains locked in the high-affinity R-state | much stronger allosteric effect | have a second symmetry-related pair of binding sites near Arg 104β |  |  | effect of DIDS (anion channel inhibitor) on the effect of the compounds [4]: does not inhibit the effects of the compounds
3 | CC(C)(Oc1ccc(CNC(=O)c2ccc(Cl)cc2)cc1)C(=O)O [MM-25] |  | somewhat stronger than bezafibrate | have a second symmetry-related pair of binding sites near Arg 104β |  |  | 
4 | Cc1cc(C)cc(NC(=O)Cc2ccc(OC(C)(C)C(=O)O)cc2)c1 [RSR-3] |  |  |  |  |  | hemolysis [5]: No hemolysis; hemolysis [6]: No hemolysis
5 | CC(C)(Oc1ccc(CCNC(=O)c2ccc(Cl)cc2)cc1)C(=O)O [bezafibrate] |  | weakest effector; also recorded: much stronger allosteric effect |  | much more effective in lowering the oxygen affinity of hemoglobin solutions and suspensions of fresh, intact red cells | bind to the same sites in the central water cavity of deoxyhemoglobin | inhibition of effect by serum albumin (prior art, words) [7]: significantly inhibited by serum albumin
6 | CC(C)(Oc1ccc(Cl)cc1)C(=O)O [clofibric acid] |  | only a relatively small effect in terms of lowering the oxygen affinity of hemoglobin |  | lowered the oxygen affinity of hemoglobin solutions | bind to the same sites in the central water cavity of deoxyhemoglobin | 
